From ChEMBL document CHEMBL3608300, “Synthesis and anticancer activity of novel curcumin-quinolone hybrids” (Bioorg Med Chem Lett, 2015)
Calls of active or inactive are those of the source. The calls are words filed in the database; no cut-off is given here.

What was measured:
A549 [1] = experiment: Cytotoxicity against human A549 cells after 24 hrs by MTT assay; type: functional, cell-based; settings: A549, 24 h
MCF7 [2] = experiment: Cytotoxicity against human MCF7 cells after 24 hrs by MTT assay; type: functional, cell-based; settings: MCF7, 24 h
SK-OV-3 [3] = experiment: Cytotoxicity against human SKOV3 cells after 24 hrs by MTT assay; type: functional, cell-based; settings: SK-OV-3, 24 h
[4] = Cytotoxicity against human H460 cells after 24 hrs by MTT assay; type: functional, cell-based; settings: NCI-H460, 24 h
NCI-H460 [5] = experiment: Cytotoxicity against human H460 cells up to 30 uM after 24 hrs by MTT assay; type: functional, cell-based
SK-OV-3 [6] = experiment: Cytotoxicity against human SKOV3 cells up to 10 uM after 24 hrs by MTT assay; type: functional, cell-based
A549 [7] = experiment: Cytotoxicity against human A549 cells up to 10 uM after 24 hrs by MTT assay; type: functional, cell-based
NCI-H460 [8] = experiment: Cytotoxicity against human H460 cells up to 10 uM after 24 hrs by MTT assay; type: functional, cell-based
MCF7 [9] = experiment: Cytotoxicity against human MCF7 cells up to 10 uM after 24 hrs by MTT assay; type: functional, cell-based
SK-OV-3 [10] = experiment: Cell cycle arrest in human SKOV3 cells assessed as accumulation at G2/M phase at IC50 after 24 hrs using hypo propidium iodide staining by flow cytometry (reference value: 15.43%); type: functional
SK-OV-3 [11] = experiment: Induction of apoptosis in human SKOV3 cells assessed as apoptotic cells at IC50 after 24 hrs using Annexin V-PE/7AAD staining by flow cytometry (reference value: 9.0%); type: functional
SK-OV-3 [12] = experiment: Cell cycle arrest in human SKOV3 cells assessed as accumulation at G0/G1 phase at IC50 after 24 hrs using hypo propidium iodide staining by flow cytometry (reference value: 72.52%); type: functional
SK-OV-3 [13] = experiment: Induction of cell morphological changes in human SKOV3 cells assessed as cell shrinkage and development of bubble like blebs on membranes at IC50 after 24 hrs by phase contrast microscope analysis; type: functional, cell-based
SK-OV-3 [14] = experiment: Induction of apoptosis in human SKOV3 cells assessed as dead cells at IC50 after 24 hrs using Annexin V-PE/7AAD staining by flow cytometry (reference value: 0.7%); type: functional
SK-OV-3 [15] = experiment: Induction of ROS production in human SKOV3 cells at IC50 after 3 hrs using DCFDA dye by flow cytometry relative to control; type: functional
SK-OV-3 [16] = experiment: Induction of cell morphological changes in human SKOV3 cells assessed as cells with ruptured cell membranes at IC50 after 24 hrs by phase contrast microscope analysis; type: functional, cell-based
SK-OV-3 [17] = experiment: Cell cycle arrest in human SKOV3 cells assessed as accumulation at S phase at IC50 after 24 hrs using hypo propidium iodide staining by flow cytometry (reference value: 11.4%); type: functional
SK-OV-3 [18] = experiment: Induction of apoptosis in human SKOV3 cells assessed as live cells at IC50 after 24 hrs using Annexin V-PE/7AAD staining by flow cytometry (reference value: 83.4%); type: functional
SK-OV-3 [19] = experiment: Induction of apoptosis in human SKOV3 cells assessed as early apoptotic cells at IC50 after 24 hrs using Annexin V-PE/7AAD staining by flow cytometry (reference value: 6.8%); type: functional
[20] = Cytotoxicity against mouse NIH/3T3 cells assessed as cell viability at IC50 after 24 hrs by MTT assay; type: functional, NIH3T3
HT-29 = experiment: Cell cycle arrest in human HT-29 cells assessed as accumulation at G2/M phase at 50 uM after 24 hrs (reference value: 12%); type: functional
HCT-15 = experiment: Cell cycle arrest in human HCT15 cells assessed as accumulation at G2/M phase at 50 uM after 24 hrs (reference value: 17%); type: functional
SJRH30 = experiment: Induction of ROS production in human Rh30 cells at 10 uM after 1 to 2 hrs relative to control; type: functional
MCF7 [21] = experiment: Cell cycle arrest in human MCF7 cells assessed as accumulation at G2/M phase at 10 uM after 24 hrs (reference value: 9%); type: functional
A549 [22] = experiment: Cytotoxicity against human A549 cells up to 30 uM after 24 hrs by MTT assay; type: functional, cell-based
SK-OV-3 [23] = experiment: Cytotoxicity against human SKOV3 cells up to 30 uM after 24 hrs by MTT assay; type: functional, cell-based
MCF7 [24] = experiment: Cytotoxicity against human MCF7 cells up to 30 uM after 24 hrs by MTT assay; type: functional, cell-based

Row | SMILES | IC50 (A549 [1]) [µM] | IC50 (MCF7 [2]) [µM] | IC50 (SK-OV-3 [3]) [µM] | IC50 [4] [µM] | other results
1 | C#CCn1c(=O)c(/C=C/C(=O)/C=C(O)/C=C/c2ccc(O)c(OC)c2)cc2cc(OC)ccc21 | 20.6 | > 100 | 14 | 38.1 | 
2 | C#CCn1c(=O)c(C=O)cc2cc(C)ccc21 | > 100 | > 100 | > 100 | > 100 | 
3 | C=CCn1c(=O)c(C=O)cc2ccccc21 | > 100 | > 100 | > 100 | > 100 | 
4 | C=CCn1c(=O)c(/C=C/C(=O)/C=C(O)/C=C/c2ccc(O)c(OC)c2)cc2ccccc21 | 31.3 | 23.5 | 26 |  | Activity (NCI-H460 [5]): inactive
5 | COc1cc(/C=C/C(O)=C/C(=O)/C=C/c2cc3ccccc3[nH]c2=O)ccc1O |  |  |  |  | Activity (SK-OV-3 [6]): inactive; Activity (A549 [7]): inactive; Activity (NCI-H460 [8]): inactive; Activity (MCF7 [9]): inactive
6 | O=Cc1cc2ccccc2n(Cc2ccccc2)c1=O | > 100 | 31.9 | > 100 | > 100 | 
7 | C#CCn1c(=O)c(/C=C/C(=O)/C=C(O)/C=C/c2ccc(O)c(OC)c2)cc2cc(C)ccc21 | 23.9 | 36.2 | 12.8 | 21.8 | Activity (SK-OV-3 [10]): 25%; Activity (SK-OV-3 [11]): 62.5%; Activity (SK-OV-3 [12]): 54.43%; Activity (SK-OV-3 [13]): Active; Activity (SK-OV-3 [14]): 7.3%; Activity (SK-OV-3 [15]): 61.5%; Activity (SK-OV-3 [16]): Active; Activity (SK-OV-3 [17]): 19.49%; Activity (SK-OV-3 [18]): 27.7%; Activity (SK-OV-3 [19]): 2.5%; Activity [20]: 74.5%
8 | COc1cc(/C=C/C(=O)CC(=O)/C=C/c2ccc(O)c(OC)c2)ccc1O [CURCUMIN] | 60.2 | 32.2 | 43.6 | 82.5 | Activity (HT-29): 33%; Activity (HCT-15): 32%; fold change (FC) (SJRH30): 1.5; Activity (MCF7 [21]): 28%
9 | O=Cc1cc2ccccc2[nH]c1=O | > 100 | > 100 | > 100 | > 100 | 
10 | C#CCn1c(=O)c(/C=C/C(=O)/C=C(O)/C=C/c2ccc(O)c(OC)c2)cc2ccccc21 | 21.3 | 15 | 19 | 25.4 | 
11 | COc1cc(/C=C/C(O)=C/C(=O)/C=C/c2cc3ccccc3n(Cc3ccccc3)c2=O)ccc1O |  |  |  |  | Activity (SK-OV-3 [6]): inactive; Activity (A549 [7]): inactive; Activity (NCI-H460 [8]): inactive; Activity (MCF7 [9]): inactive
12 | C#CCn1c(=O)c(/C=C/C(=O)/C=C(O)/C=C/c2ccc(O)c(OC)c2)cc2cc(Cl)ccc21 |  |  |  |  | Activity (A549 [22]): inactive; Activity (SK-OV-3 [23]): inactive; Activity (MCF7 [24]): inactive; Activity (NCI-H460 [5]): inactive
13 | C#CCn1c(=O)c(C=O)cc2cc(F)ccc21 | > 100 | > 100 | > 100 | > 100 | 
14 | C#CCn1c(=O)c(C=O)cc2cc(OC)ccc21 | > 100 | > 100 | > 100 | > 100 | 
15 | O=C(/C=C(O)/C=C/c1cc2ccccc2[nH]c1=O)/C=C/c1cc2ccccc2[nH]c1=O | 69.1 | 31.5 | 34 | 63.3 | 
16 | C#CCn1c(=O)c(/C=C/C(=O)/C=C(O)/C=C/c2ccc(O)c(OC)c2)cc2cc(F)ccc21 | 40.5 | 25 | > 100 | 44.3 | 
17 | C#CCn1c(=O)c(C=O)cc2ccccc21 | > 100 | > 100 | > 100 | > 100 | 
18 | C#CCn1c(=O)c(C=O)cc2cc(Cl)ccc21 | > 100 | > 100 | > 100 | > 100 | 
